Like-named read-outs stand apart in the source and are kept apart here.
T1: cysteine synthase complex (CSC; E. coli CysE in complex with E. coli CysK) (Escherichia coli, UniProt P0A9D4)
T1 sequence (P0A9D4 1-273): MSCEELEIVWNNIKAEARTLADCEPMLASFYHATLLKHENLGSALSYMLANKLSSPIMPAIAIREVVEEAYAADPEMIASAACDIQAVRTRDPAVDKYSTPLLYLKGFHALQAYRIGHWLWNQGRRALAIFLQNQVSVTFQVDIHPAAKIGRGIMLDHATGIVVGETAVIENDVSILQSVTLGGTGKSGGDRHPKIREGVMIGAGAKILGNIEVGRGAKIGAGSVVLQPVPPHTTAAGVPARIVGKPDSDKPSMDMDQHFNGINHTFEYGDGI
T1 sequence (P0ABK5 1-323 partner): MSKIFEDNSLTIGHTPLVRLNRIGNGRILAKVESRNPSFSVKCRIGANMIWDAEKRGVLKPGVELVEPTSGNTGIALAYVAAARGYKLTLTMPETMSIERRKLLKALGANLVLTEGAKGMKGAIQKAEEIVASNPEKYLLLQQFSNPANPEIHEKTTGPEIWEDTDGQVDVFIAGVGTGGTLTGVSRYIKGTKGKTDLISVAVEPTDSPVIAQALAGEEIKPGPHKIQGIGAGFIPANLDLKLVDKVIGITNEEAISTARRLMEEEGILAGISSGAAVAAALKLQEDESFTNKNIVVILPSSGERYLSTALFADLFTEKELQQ

T2: Escherichia coli CysE (Escherichia coli, UniProt P0A9D4)
T2 sequence (P0A9D4 1-273): T1 sequence (P0A9D4 1-273)

B1: O-acetylserine sulfhydrylase-A (CysK) from E. coli (enzyme, UniProt P0ABK5 1-323, looked up)
chain: T1 sequence (P0ABK5 1-323 partner)
modifications: bound pyridoxal 5'-phosphate (PLP) cofactor
B2: Escherichia coli CysE (Escherichia coli K-12) (protein)
chain: T1 sequence (P0A9D4 1-273)
B3: serine acetyltransferase (CysE) from E. coli (enzyme, UniProt P0A9D4 1-273, looked up)
chain: T1 sequence (P0A9D4 1-273)
B4: cysteine synthase complex (CSC; E. coli CysE in complex with E. coli CysK) (Escherichia coli K-12) (protein)
chain: T1 sequence (P0A9D4 1-273)

Assays:
[1] = molecular target: T1, cysteine synthase complex (CSC; E. coli CysE in complex with E. coli CysK); test: L-Ser acetylation steady-state kinetics of CysE in complex with CysK; details: for apparent kcat: per CysE hexamer
Escherichia coli CysE = molecular target: T2, Escherichia coli CysE; test: L-Ser acetylation steady-state kinetics of isolated CysE; details: for apparent kcat: per CysE hexamer
plant CysE = plant CysE in the CSC vs free; cited from earlier work
CysK = CysK (Escherichia coli, UniProt P0ABK5); test: Fluorescence titration of CysK; assay type: binding; details: in the presence of 10 μM L-Cys
SEC = molecular target: the molecule itself; test: SEC
[2] = substrate: N[C@@H](CO)C(=O)O; test: purified protein, by the assay type; details: 20.0 °C
[3] = molecular target: B1; test: other fluorescence titration
[4] = molecular target: B1; test: inhibition of enzyme activity

CC(=O)SCCNC(=O)CCNC(=O)[C@H](O)C(C)(C)COP(=O)(O)OP(=O)(O)OC[C@H]1O[C@@H](n2cnc3c(N)ncnc32)[C@H](O)[C@@H]1OP(=O)(O)O [Acetyl-CoA, acetyl-CoA]
apparent kcat ([1]; +CysK fivefold molar excess, acetyl-CoA varied, L-Ser 20 mM): 416 ± 38 s⁻¹
Km ([1]; read-out: KM,acCoA, +CysK fivefold molar excess, global fit Eqn 2): 300 ± 100 µM
Kd ([1]; read-out: Kd,acCoa, +CysK fivefold molar excess, global fit Eqn 2): 100 ± 100 µM
apparent kcat (Escherichia coli CysE; -CysK, acetyl-CoA varied, L-Ser 20 mM): 306 ± 35 s⁻¹
Km (Escherichia coli CysE; read-out: KM,acCoA, -CysK, global fit Eqn 2): 300 ± 100 µM
Kd (Escherichia coli CysE; read-out: Kd,acCoa, -CysK, dissociation from unligated enzyme, global fit Eqn 2): 100 ± 100 µM
Km (Escherichia coli CysE; read-out: apparent KM, -CysK, acetyl-CoA varied, L-Ser 20 mM, 20 °C): 1400 ± 400 µM

N[C@@H](CS)C(=O)O [L-Cys, L-cysteine]
fold increase of L-Cys Ki of plant CysE in the CSC (plant CysE): more than 35 fold
increase in L-Cys IC50 of plant CysE in the CSC (plant CysE): fourfold
IC50 [1]: 0.7 µM
increase of L-Cys IC50 in the CSC vs free CysE ([1]; presence of molar excess CysK): fourfold
IC50 (Escherichia coli CysE; IC50 for L-Cys, free CysE): 0.18 µM
IC50 (Escherichia coli CysE; L-Cys concentration around the IC50, 0.1 mM L-Ser (physiological), Fig. S5B): ~0.07 µM
IC50 (Escherichia coli CysE; L-Cys concentration around the IC50, 20 mM L-Ser (saturating), Fig. S5B): ~0.5 µM
fold increase in the dissociation constant of the CSC (CysK): 10 fold

N[C@@H](CO)C(=O)O [L-Ser, L-serine]
Kd [1]: 600 ± 200 µM
Ki [1]: 16000 ± 5000 µM
apparent kcat ([1]; +CysK fivefold molar excess, L-Ser varied, acetyl-CoA […]): 228 ± 34 s⁻¹
increase in the L-Ser inhibition constant, CSC vs free CysE ([1]; CysE in complex with CysK): four fold
Kd (Escherichia coli CysE): 500 ± 200 µM
apparent kcat (Escherichia coli CysE; -CysK, L-Ser varied, acetyl-CoA […]): 228 ± 60 s⁻¹

B1
stoichiometry N (SEC): 2

B2
Km ([2]; other: -CysK, L-Ser varied, acetyl-CoA […]): 1700 ± 700 µM
Km ([2]; other: -CysK, global fit, random-order mechanism (Eqn 2)): 1300 ± 200 µM

B3
stoichiometry N (SEC): 6
stoichiometry N [3]: ~1.6 CysE:CysK
Ki app [4]: 0.0087 ± 0.001 µM

B4
Km ([2]; other: +CysK fivefold molar excess, L-Ser varied, acetyl-CoA […]): 1100 ± 400 µM
Km ([2]; other: +CysK fivefold molar excess, global fit Eqn 2): 1200 ± 200 µM

Reference: paper PMC5957530 (FEBS letters, 2017)
